Among the data in patent US20230141403A1 (Hoffmann-La Roche Inc., priority 2020, published 2023) are IC90 values, retold here.

Structures can show the parent of a compound that is named as a salt.

In the first test the test system is Acinetobacter baumannii ATCC17961. The test can be described thus: Antimicrobial susceptibility testing: 90% growth inhibitory concentration (IC90) determination. It counts as cell-based. To be noted: 90% growth inhibitory concentration; Iso-Sensitest broth, optical density at 600 nm over 16h, 35±2° C.; read-out: AB ATCC 17961 IC90. The method, then:
(§1) Antimicrobial Susceptibility Testing:
(§2) 90% Growth Inhibitory Concentration (IC90) Determination
(§3) The in vitro antimicrobial activity of the compounds was determined according to the following procedure:
(§4) The assay used a 10-points Iso-Sensitest broth medium to measure quantitatively the in vitro activity of the compounds against Acinetobacter baumannii ATCC17961 or ATCC17978.
(§5) Stock compounds in DMSO were serially twofold diluted (e.g. range from 50 to 0.097 μM final concentration) in 384 wells microtiter plates and inoculated with 49 μl the bacterial suspension in Iso-Sensitest medium to have a final cell concentration of ˜5×10^(5) CFU/ml in a final volume/well of 50 ul/well. Microtiter plates were incubated at 35±2° C.
(§6) Bacterial cell growth was determined with the measurement of optical density at λ=600 nm each 20 minutes over a time course of 16h. Growth inhibition was calculated during the logarithmic growth of the bacterial cells with determination of the concentration inhibiting 50% (IC50) and 90% (IC90) of the growth.
Table 2 provides the 90% growth inhibitory concentrations (IC90) in micromoles per liter of the compounds of present invention obtained against the strain Acinetobacter baumannii ATCC17961.
As to `COc1ccc(-c2cnc3c(Nc4ccc(S(C)(=O)=NCCCNC(=O)[C@H]5C[C@H](O)CN5)c(C)c4)nccn23)c(F)c1F` (mixture of isomers) [Example 32, rac-(2R,4S)—N-(3-(((4-((3-(2,3-difluoro-4-methoxyphenyl)imidazo[1,2-a]pyrazin-8-yl)amino)-2-methylphenyl)(methyl)oxo)-l6-sulfaneylidene)amino)propyl)-4-hydroxypyrrolidine-2-carboxamide dihydrochloride], the IC90 (as a rule, the point of the concentration-response curve where the effect stands at 90%) was 0.17 µM.

Consider `CN=S(C)(=O)c1ccc(Nc2nccn3c(-c4ccc(OC)c(F)c4F)cnc23)cc1C` (single isomer, unassigned; (+)) [Example 21, (+)-(4-((3-(2,3-difluoro-4-methoxyphenyl)imidazo[1,2-a]pyrazin-8-yl)amino)-2-methylphenyl)(methyl)(methylimino)-l6-sulfanone], for which the IC90 is 0.26 µM.

The same test, now with this note: Acinetobacter baumannii, ATCC17961, 16 h, 90% growth inhibitory concentration; Iso-Sensitest broth, optical density at 600 nm over 16h, 35±2° C.; read-out: AB ATCC 17961 IC90.
On to `COc1ccc(-c2cnc3c(Nc4ccc(Cn5ccnc5)c(C)c4)nccn23)c(F)c1F` [Example 118, 3-(2,3-difluoro-4-methoxy-phenyl)-N-[4-(imidazol-1-ylmethyl)-3-methyl-phenyl]imidazo[1,2-a]pyrazin-8-amine], for which the IC90 was found to be 0.12 µM. Same read-out and setting: the value for `Cc1cc(Nc2nccn3c(-c4ccc(Oc5ccccn5)c(F)c4F)cnc23)ccc1OCCOCCOCCN` [Example 122, N-(4-(2-(2-(2-aminoethoxy)ethoxy)ethoxy)-3-methylphenyl)-3-(2,3-difluoro-4-(pyridin-2-yloxy)phenyl)imidazo[1,2-a]pyrazin-8-amine] was 0.65 µM; that for `NCCCCCC1CC(=O)N(c2ccc(Nc3nccn4c(-c5ccc(OC(F)F)cc5)cnc34)cc2)C1` (centres unmarked) [Example 62, 4-(5-aminopentyl)-1-(4-((3-(4-(difluoromethoxy)phenyl)imidazo[1,2-a]pyrazin-s-yl)amino)phenyl)pyrrolidin-2-one] was 0.094 µM. Still for that read-out and setting: the value for `CCc1cc(Nc2nccn3c(-c4ccc(OC)c(F)c4F)cnc23)ccc1S(=O)(=O)N1CCN(C(=O)C2(O)CCNCC2)CC1` [Example 109, (4-((4-((3-(2,3-difluoro-4-methoxyphenyl)imidazo [1,2-alpyrazin-8-yl)amino)-2-ethylphenyl)sulfonyl)piperazin-1-yl)(4-hydroxypiperidin-4-yl)methanonbydrochloride] was 0.64 µM; that for `CN=S(=O)(c1ccc(Nc2nccn3c(-c4ccc(OC)c(F)c4F)cnc23)cc1)C1CCN(C(=O)[C@@H]2C[C@@H](O)CN2)CC1` (stereo partly drawn) [Example 74, (4-(4-((3-(2,3-difluoro-4-methoxyphenyl)imidazo[1,2-a]pyrazin-8-yl)amino)-N-methylphenylsulfonimidoyl)piperidin-1-yl)((2S,4R)-4-hydroxypyrrolidin-2-yl)methanone] was 0.15 µM. Still for that read-out and setting: the value for `COc1ccc(-c2cnc3c(Nc4ccc(S(=O)(=O)N5CCN(CCCN(C)C)CC5)c(C)c4)nccn23)c(F)c1F` [Example 98] was 0.29 µM; that for `COc1ccc(-c2cnc3c(Nc4ccc([S@](C)(=O)=NCCCN)c(C)c4)nccn23)c(F)c1F` [Example 27, (−)-((3-aminopropyl)imino)(4-((3-(2,3-difluoro-4-methoxyphenyl)imidazo[1,2-a]pyrazin-8-yl)amino)-2-methylphenyl)(methyl)-l6-sulfanone] was 0.086 µM; that for `CCc1cc(Nc2nccn3c(-c4ccc(OC)c(F)c4F)cnc23)ccc1S(=O)(=O)N1CCN(C(=O)C2CCNCC2)CC1` [Example 108, (4-((4-((3-(2,3-difluoro-4-methoxyphenyl)imidazo[1,2-a]pyrazin-8-ylamino)-2-ethylphenyl)sulfonyl)piperazin-1-yl)(piperidin-4-yl)methanone hydrochloride] was 0.22 µM. For the molecule `COc1ccc(-c2cnc3c(Nc4ccc(S(=O)(=O)C[C@H]5CC[C@H](N)CC5)c(Cl)c4)nccn23)c(F)c1F` [Example 116, rac-N-(4-((((lr,4r)-4-aminocyclohexyl)methyl)sulfonyl)-3-chlorophenyl)-3-(2,3-difluoro-4-methoxyphenyl)imidazol[1,2-a]pyrazin-8-amine], the IC90 was found to be 0.22 µM.

`CN=S(C)(=O)c1ccc(Nc2nccn3c(-c4ccc(OC)c(F)c4F)cnc23)cc1` (centres unmarked) [Example 69, 3-(2,3-difluoro-4-methoxyphenyl)-N-(4-(N,S-dimethylsulfonimidoyl)phenyl)imidazo[1,2-a]pyrazin-8-amine]: the IC90 turned out to be 0.2 µM. Consider `COc1ccc(-c2cnc3c(Nc4ccc(N5CCC(CN)CC5)c(Cl)c4)nccn23)c(F)c1F` [Example 115, N-(4-(4-(aminomethyl)piperidin-1-yl)-3-chlorophenyl)-3-(2,3-difluoro-4-methoxyphenyl) imidazo [1,2-a]pyrazin-8-amine hydrochloride], for which the IC90 is 0.49 µM. On the same count and under the same terms, then `COc1ccc(-c2cnc3c(Nc4ccc(N5CCCC5=O)cc4)nccn23)cc1F` [Example 48, 1-(4-((3-(3-fluoro-4-methoxyphenyl)imidazo[1,2-a]pyrazin-8-yl)amino)phenyl)pyrrolidin-2-one], with 0.076 µM; and `NCCOCC1CC(=O)N(c2ccc(Nc3nccn4c(-c5ccc(OC(F)F)cc5)cnc34)cc2)C1` (centres unmarked) [Example 64, 4-((2-aminoethoxy)methyl)-1-(4-((3-(4-(difluoromethoxy)phenyl)imidazo[1,2-a]pyrazin-8-yl)amino)phenyl)pyrrolidin-2-one], with 0.12 µM. With `COc1ccc(-c2cnc3c(Nc4ccc([S@@](C)(=O)=NCCCNC(=O)[C@@H]5C[C@@H](O)CN5)c(C)c4)nccn23)c(F)c1F` [Example 30, (2S,4R)-N-(3-(((+)-(4-((3-(2,3-difluoro-4-methoxyphenyl)imidazo[1,2-a]pyrazin-8-yl)amino)-2-methylphenyl) (methyl)(oxo)-16-sulfaneylidene)amino)propyl)-4-hydroxypyrrolidine-2-carboxamide dihydrochloride], the IC90 turned out to be 0.13 µM.

Still in this test, the particulars now being: Acinetobacter baumannii, ATCC17961, 16 h, read-out: AB ATCC 17961 IC90 (uM).
As for `COc1ccc(-c2cnc3c(Nc4ccc(N5CCC(CN)CC5)cc4)nccn23)c(F)c1F` [Example 112, N-(4-(4-(aminomethyl)piperidin-1-yl)phenyl)-3-(2,3-difluoro-4-methoxyphenyl)imidazo[1,2-a]pyrazin-8-amine hydrochloride], the concentration for an effect of 90% (IC90) is 0.56 µM.

On to `COc1ccc(-c2cnc3c(Nc4ccc(S(C)(=O)=NCCCN)c(C)c4)nccn23)c(F)c1F` (centres unmarked) [Example 67, N-[4-[N-(3-aminopropyl)-S-methyl-sulfonimidoyl]-3-methyl-phenyl]-3-(2,3-difluoro-4-methoxy-phenyl)imidazo[1,2-a]pyrazin-8-amine; formic acid], for which the IC90 was 0.12 µM. As to `CCc1cc(Nc2nccn3c(-c4ccc(OC)c(F)c4F)cnc23)ccc1S(C)(=O)=NCCCN` (centres unmarked) [Example 70, N-[4-[N-(3-aminopropyl)-S-methyl-sulfonimidoyl]-3-ethyl-phenyl]-3-(2,3-difluoro-4-methoxy-phenyl)imidazo[1,2-a]pyrazin-8-amine; formic acid], the IC90 came to 0.19 µM.

Regarding `COc1ccc(-c2cnc3c(Nc4ccc(S(=O)(=O)N5CCN(CCCN(C)C)CC5)c(Cl)c4)nccn23)c(F)c1F` [Example 96, N-(3-chloro-4-((4-(3-(dimethylamino)propyl)piperazin-1-yl)sulfonyl)phenyl)-3-(2,3-difluoro-4-methoxyphenyl)imidazo[1,2-a]pyrazin-8-amine], the IC90 stood at 0.2 µM.

For a further test, the system named is Acinetobacter baumannii ATCC17978. The description is as above. It counts as cell-based. The conditions noted are these: ATCC17978, 90% growth inhibitory concentration, Iso-Sensitest broth, optical density at 600 nm over 16h, 35±2° C., read-out: AB ATCC 17978 IC90. The method, then: as §1, §2, §3, §4, §5, §6
Table 1 provides the 90% growth inhibitory concentrations (IC90) in micromoles per liter of the compounds of present invention obtained against the strain Acinetobacter baumannii ATCC17978.
With `O=C1COCCN1c1ccc(Nc2nccn3c(-c4ccc(OC(F)F)cc4)cnc23)cc1` [Example 4, 4-[4-[[3-[4-(difluoromethoxy)phenyl]imidazo[1,2-a]pyrazin-8-yl]amino]phenyl]morpholin-3-one], the IC90 was determined as 330 nM. The same measure, in the same setting: then `C#CCOc1ccc(-c2cnc3c(Nc4ccc(NC(C)=O)cc4)nccn23)cc1` [Example 65, N-(4-((3-(4-(prop-2-yn-1-yloxy)phenyl)imidazo[1,2-a]pyrazin-8-yl)amino)phenyl)acetamide], with 750 nM; and `COc1ccc(-c2cnc3c(Nc4ccc(NC(C)=O)c(C)c4)nccn23)cc1` [Example 20, N-{4-[3-(4-Methoxy-phenyl)-imidazo[1,2-a]pyrazin-8-ylamino]-2-methyl-phenyl}-acetamide], with 110 nM; and `CCc1cc(Nc2nccn3c(-c4ccc(OC)c(Cl)c4)cnc23)ccc1NC(C)=O` [Example 45, N-(4-((3-(3-chloro-4-methoxyphenyl)imidazo[1,2-a]pyrazin-8-yl)amino)-2-ethylphenyl)acetamide], with 160 nM. The same measure, in the same setting: then `COc1ccc(-c2cnc3c(Nc4ccc(S(C)(=O)=O)c(Cl)c4)nccn23)cc1` [Example 81, N-(3-chloro-4-(methylsulfonyl)phenyl)-3-(4-methoxyphenyl) imidazo [1,2-a]pyrazin-8-amine], with 630 nM; and `COc1ccc(-c2cnc3c(Nc4ccc(NC(C)=O)c(C)c4)nccn23)cc1Cl` [Example 11, N-[4-[[3-(3-chloro-4-methoxy-phenyl)imidazo [1,2-a]pyrazin-8-yl]amino]-2-methyl-phenyl]acetamide; 2,2,2-trifluoroacetic acid], with 87 nM.
